Test results from PubChem BioAssay (NCI).
Values joined by “and” are separate entries in the source; they are usually repeats but may differ in a detail not shown here. Equal values may be shown once.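 96-well plates; 48 h exposure; 5 concentrations. Endpoints by linear interpolation between flanking doses. Not reached: highest tested concentration assigned. At the GI50, growth is halved. TGI: concentration producing complete growth inhibition.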

Tests used:
Assay in all cases: DTP human tumour cell line panel, 48 h
OVCAR-5 ovarian = test system: OVCAR-5 ovarian
SK-OV-3 ovarian = test system: SK-OV-3 ovarian
SF-268 CNS = test system: SF-268 CNS
NCI-H460 lung = test system: NCI-H460 lung
MOLT-4 leukemia = test system: MOLT-4 leukemia
KM12 colon = test system: KM12 colon
IGROV1 ovarian = test system: IGROV1 ovarian
SK-MEL-2 melanoma = test system: SK-MEL-2 melanoma
CAKI-1 renal = test system: CAKI-1 renal
NCI-H522 lung = test system: NCI-H522 lung

## CCOC(=O)c1cn(Cc2ccccc2)c(=O)n1Cc1ccccc1
OVCAR-5 ovarian
  TGI: > 100 µM
SK-OV-3 ovarian
  TGI: > 100 µM
SF-268 CNS
  TGI: > 100 µM
NCI-H460 lung
  TGI: > 100 µM
MOLT-4 leukemia
  TGI: > 100 µM
KM12 colon
  TGI: > 100 µM
IGROV1 ovarian
  TGI: > 100 µM
SK-MEL-2 melanoma
  TGI: > 100 µM
CAKI-1 renal
  TGI: > 100 µM
NCI-H522 lung
  TGI: > 100 µM

## Cn1cc(C2=C(c3cn(CCN)c4ccccc34)C(=O)NC2=O)c2ccccc21
OVCAR-5 ovarian
  GI50: 10800 nM
  TGI: > 25 µM
SK-OV-3 ovarian
  GI50: 6.17 µM
  TGI: 24.4 µM
SF-268 CNS
  GI50: 7.41 µM
  TGI: 20.4 µM
NCI-H460 lung
  GI50: 7540 nM
  TGI: > 25 µM
MOLT-4 leukemia
  GI50: 6480 nM
  TGI: 19.9 µM
KM12 colon
  GI50: 6.69 µM
  TGI: > 20.6 µM
IGROV1 ovarian
  GI50: 9.3 µM
  TGI: > 21 µM
SK-MEL-2 melanoma
  GI50: 5120 nM
  TGI: 12.1 µM
CAKI-1 renal
  GI50: 4.18 µM
  TGI: 24.5 µM
NCI-H522 lung
  GI50: 6.01 µM
  TGI: 17.2 µM

## CCOC(=O)c1sc(=S)c2c(C(=O)OCC)c(C(=O)OCC)sc2c1C(=O)OCC
OVCAR-5 ovarian
  GI50: 17600 nM
  TGI: 35.7 µM
SK-OV-3 ovarian
  GI50: 43.3 µM
  TGI: > 100 µM
SF-268 CNS
  GI50: 16.4 µM
  TGI: 33.9 µM
NCI-H460 lung
  GI50: 21400 nM
  TGI: 51.2 µM
MOLT-4 leukemia
  GI50: 15900 nM
  TGI: 42.3 µM
KM12 colon
  GI50: 18.4 µM
  TGI: 44.5 µM
IGROV1 ovarian
  GI50: 13.4 µM
  TGI: 29.8 µM
SK-MEL-2 melanoma
  GI50: 21200 nM
  TGI: 44.7 µM
CAKI-1 renal
  GI50: 26.5 µM
  TGI: 93.9 µM
NCI-H522 lung
  GI50: 10.6 µM
  TGI: 26.4 µM

## CCCCCCCC[N+](C)(CCCCCCCC)CCCCCCCC
OVCAR-5 ovarian
  GI50: 621 nM
  TGI: 1.98 µM
SK-OV-3 ovarian
  GI50: 0.468 µM
  TGI: 1.71 µM
SF-268 CNS
  GI50: 0.441 µM
  TGI: 1.53 µM
NCI-H460 lung
  GI50: 430 nM
  TGI: 1.45 µM
MOLT-4 leukemia
  GI50: 324 nM
  TGI: 1.37 µM
KM12 colon
  GI50: 0.213 µM
  TGI: 0.575 µM
IGROV1 ovarian
  GI50: 0.347 µM
  TGI: 1.91 µM
SK-MEL-2 melanoma
  GI50: 356 nM
  TGI: 8.81 µM
CAKI-1 renal
  GI50: 0.0838 µM
  TGI: 0.639 µM
NCI-H522 lung
  GI50: 0.223 µM
  TGI: 0.746 µM

## COC(=O)C1=C(CO)C2C=CC1C2 (stereo unspecified)
OVCAR-5 ovarian
  TGI: > 100 µM
SK-OV-3 ovarian
  TGI: > 100 µM
SF-268 CNS
  TGI: > 100 µM
NCI-H460 lung
  TGI: > 100 µM
MOLT-4 leukemia
  TGI: > 100 µM
KM12 colon
  TGI: > 100 µM
IGROV1 ovarian
  TGI: > 100 µM
SK-MEL-2 melanoma
  TGI: > 100 µM
CAKI-1 renal
  TGI: > 100 µM
NCI-H522 lung
  TGI: > 100 µM

## CSc1nc2sc3cc(Cl)ccc3n2c(=N)c1C#N
OVCAR-5 ovarian
  GI50: > 62700 nM
  TGI: > 100 µM
SK-OV-3 ovarian
  GI50: 12.5 µM
  TGI: > 100 µM
SF-268 CNS
  GI50: 14 µM
  TGI: > 100 µM
NCI-H460 lung
  GI50: > 79700 nM
  TGI: > 100 µM
MOLT-4 leukemia
  GI50: 2200 nM
  TGI: > 23.6 µM
KM12 colon
  GI50: 3.78 µM
  TGI: > 72 µM
IGROV1 ovarian
  GI50: > 49.2 µM
  TGI: > 88.4 µM
SK-MEL-2 melanoma
  GI50: 15500 nM
  TGI: 48.5 µM
CAKI-1 renal
  GI50: 17.1 µM
  TGI: 88.2 µM
NCI-H522 lung
  GI50: 62.7 µM
  TGI: > 100 µM

## CC(=O)N=c1ccc2nc3c(cc(N)c4ccccc43)oc-2c1
OVCAR-5 ovarian
  GI50: 1800 nM
  TGI: 3.94 µM
SK-OV-3 ovarian
  GI50: 1.92 µM
  TGI: 4.95 µM
SF-268 CNS
  GI50: 1.66 µM
  TGI: 3.43 µM
NCI-H460 lung
  GI50: 1850 nM
  TGI: 4.24 µM
MOLT-4 leukemia
  GI50: 353 nM
  TGI: 5.26 µM
KM12 colon
  GI50: 1.44 µM
  TGI: 2.87 µM
IGROV1 ovarian
  GI50: 0.36 µM
  TGI: 1.89 µM
SK-MEL-2 melanoma
  GI50: 1570 nM
  TGI: 3.34 µM
CAKI-1 renal
  GI50: 1.55 µM
  TGI: 3.17 µM
NCI-H522 lung
  GI50: 1.44 µM
  TGI: 3.47 µM

## NC1=N/C(=C2/CCNC(=O)c3[nH]c(Br)cc32)C(=O)N1
OVCAR-5 ovarian
  TGI: > 100 µM
SK-OV-3 ovarian
  GI50: 7.66 µM and 16.1 µM
  TGI: > 100 µM
SF-268 CNS
  TGI: 59.9 µM and > 69.6 µM
NCI-H460 lung
  TGI: > 100 µM
MOLT-4 leukemia
  TGI: > 52.6 µM
KM12 colon
  GI50: > 100 µM
  TGI: > 100 µM
IGROV1 ovarian
  GI50: 30.4 µM and 97 µM
  TGI: > 100 µM
SK-MEL-2 melanoma
  GI50: 975 nM and 2900 nM
  TGI: 8.72 µM and 26.3 µM
CAKI-1 renal
  GI50: > 33.9 µM and 5.68 µM
  TGI: > 100 µM
NCI-H522 lung
  GI50: 7.44 µM and 2.54 µM
  TGI: 32.5 µM and 17.4 µM

## Nc1ncnc2c1ncn2C1OC(CO)=CC1O (stereo unspecified)
OVCAR-5 ovarian
  TGI: > 37.5 µM
SK-OV-3 ovarian
  TGI: > 37.5 µM
SF-268 CNS
  TGI: > 37.5 µM
NCI-H460 lung
  TGI: > 37.5 µM
MOLT-4 leukemia
  TGI: > 37.5 µM
KM12 colon
  TGI: > 37.5 µM
IGROV1 ovarian
  TGI: > 37.5 µM
SK-MEL-2 melanoma
  TGI: > 37.5 µM
CAKI-1 renal
  TGI: > 37.5 µM
NCI-H522 lung
  TGI: > 37.5 µM

## CCn1cnc2c(Nc3cccc(Cl)c3)nc(N[C@@H]3CCCC[C@@H]3N)nc21
OVCAR-5 ovarian
  GI50: 1810 nM
  TGI: 7.92 µM
SK-OV-3 ovarian
  GI50: 3.85 µM
  TGI: 10.8 µM
SF-268 CNS
  GI50: 1.65 µM
  TGI: 3.89 µM
NCI-H460 lung
  GI50: 1230 nM
  TGI: 3.7 µM
MOLT-4 leukemia
  GI50: 2240 nM
  TGI: 7.27 µM
KM12 colon
  GI50: 0.733 µM
  TGI: 2.67 µM
IGROV1 ovarian
  GI50: 2 µM
  TGI: 8.58 µM
SK-MEL-2 melanoma
  GI50: 1650 nM
  TGI: 3.43 µM
CAKI-1 renal
  GI50: 2.6 µM
  TGI: 10.1 µM
NCI-H522 lung
  GI50: 1.64 µM
  TGI: 3.8 µM

## O=C1OC(O)C(Oc2ccc(Cl)cc2)=C1Cl (stereo unspecified)
OVCAR-5 ovarian
  TGI: > 100 µM
SK-OV-3 ovarian
  TGI: > 100 µM
SF-268 CNS
  TGI: > 100 µM
NCI-H460 lung
  TGI: > 100 µM
MOLT-4 leukemia
  TGI: > 100 µM
KM12 colon
  TGI: > 100 µM
IGROV1 ovarian
  TGI: > 100 µM
SK-MEL-2 melanoma
  TGI: > 100 µM
CAKI-1 renal
  TGI: > 100 µM
NCI-H522 lung
  TGI: > 100 µM

## Cc1cc(Cl)cc2c1NC(=O)C2(O)C(C)C(=O)c1ccc(Cl)cc1 (stereo unspecified)
OVCAR-5 ovarian
  TGI: > 100 µM
SK-OV-3 ovarian
  TGI: > 100 µM
SF-268 CNS
  TGI: > 100 µM
NCI-H460 lung
  TGI: > 100 µM
MOLT-4 leukemia
  TGI: 87.7 µM
KM12 colon
  TGI: > 100 µM
IGROV1 ovarian
  TGI: > 100 µM
SK-MEL-2 melanoma
  TGI: > 100 µM
CAKI-1 renal
  TGI: > 100 µM
NCI-H522 lung
  TGI: > 100 µM

## N#CCCN(c1ccc(-c2nnc(NC(=O)CNNC(=O)CC(=O)Nc3ccccc3)s2)cc1)S(=O)(=O)c1ccccc1
OVCAR-5 ovarian
  TGI: > 100 µM
SK-OV-3 ovarian
  TGI: > 100 µM
SF-268 CNS
  TGI: > 100 µM
NCI-H460 lung
  TGI: > 100 µM
MOLT-4 leukemia
  TGI: > 100 µM
KM12 colon
  TGI: > 100 µM
IGROV1 ovarian
  TGI: > 100 µM
SK-MEL-2 melanoma
  TGI: > 100 µM
CAKI-1 renal
  TGI: > 100 µM
NCI-H522 lung
  TGI: > 100 µM

## NC(=S)N/N=C1/C(=O)N(c2ccc(Cl)cc2Cl)C(=O)C(=O)C1c1nc2ccccc2s1 (stereo unspecified)
OVCAR-5 ovarian
  TGI: > 100 µM
SK-OV-3 ovarian
  TGI: > 100 µM
SF-268 CNS
  TGI: > 100 µM
NCI-H460 lung
  TGI: > 100 µM
MOLT-4 leukemia
  TGI: > 100 µM
KM12 colon
  TGI: > 100 µM
IGROV1 ovarian
  TGI: > 100 µM
SK-MEL-2 melanoma
  TGI: > 100 µM
CAKI-1 renal
  TGI: > 100 µM
NCI-H522 lung
  TGI: > 100 µM
